Measurements from patent US20230117034A1, “PYRAZOLOTRIAZINES” (Bayer Aktiengesellschaft, priority 2019, published 2023).

Assays:
CDK2/CycE = molecular target: T1, CDK2/CycE (Homo sapiens, UniProt P24941); experiment: CDK2/CycE kinase assay (TR-FRET, 2 mM ATP); type: biochemical; settings: 2 mM ATP (high ATP); median; read-out: CDK2/CyclinE, 2 mM ATP (high ATP), IC50 (median)
T1 construct: purchased ProQinase GmbH (Freiburg, Germany); host or cells: insect cells (Sf9)
Source text: CDK2/CycE-inhibitory activity of compounds of the present invention was quantified employing the CDK2/CycE TR-FRET assay as described in the following paragraphs.
Recombinant fusion proteins of GST and human CDK2 and of GST and human CycE, expressed in insect cells (Sf9) and purified by Glutathion-Sepharose affinity chromatography, were purchase from ProQinase GmbH (Freiburg, Germany). As substrate for the kinase reaction biotinylated peptide biotin-Ttds-YISPLKSPYKISEG (C-terminus in amid form) was used which can be purchased e.g. form the company JERINI peptide technologies (Berlin, Germany).
For the assay 50 nanoL of a 100 fold concentrated solution of the test compound in DMSO was pipetted into a black low volume 384 well microtiter plate or a black 1536 well microtiter plate (both Greiner Bio-One, Frickenhausen, Germany), 2 microL of a solution of CDK2/CycE in aqueous assay buffer [50 millimol/L Tris/HCl pH 8.0, 10 millimol/L MgCl2, 1.0 millimol/L dithiothreitol, 0.1 millimol/L sodium ortho-vanadate, 0.01% (v/v) Nonidet-P40 (Sigma)] were added and the mixture was incubated for 15 min at 22° C. to allow pre-binding of the test compounds to the enzyme before the start of the kinase reaction. Then the kinase reaction was started by the addition of 3 microL of a solution of adenosine-tri-phosphate (ATP, 3.33 millimol/L=>final conc. in the 5 microL assay volume is 2 millimol/L) and substrate (1.25 micromol/L=>final conc. in the 5 microL assay volume is 0.75 micromol/L) in assay buffer and the resulting mixture was incubated for a reaction time of 25 min at 22° C. The concentration of CDK2/CycE was adjusted depending of the activity of the enzyme lot and was chosen appropriate to have the assay in the linear range, typical concentrations were in the range of 10 ng/ml. The reaction was stopped by the addition of 3 microL of a solution of TR-FRET detection reagents (0.333 micromol/L streptavidine-XL665 [Cisbio Bioassays, Codolet, France] and 1.67 nanomol/L anti-RB(pSer807/pSer8l 1)-antibody from BD Pharmingen [#558389] and 2 nanomol/L LANCE EU-W1024 labeled anti-mouse IgG antibody [Perkin-Elmer, product no. AD0077, as an alternative a Terbium-cryptate-labeled anti-mouse IgG antibody from Cisbio Bioassays can be used]) in an aqueous EDTA-solution (167 millimol/L EDTA, 0.2% (w/v) bovine serum albumin in 100 millimol/L HEPES pH 7.5).
(§1) The resulting mixture was incubated 1 h at 22° C. to allow the formation of complex between the phosphorylated biotinylated peptide and the detection reagents. Subsequently the amount of phosphorylated substrate was evaluated by measurement of the resonance energy transfer from the Eu-chelate to the streptavidine-XL. Therefore, the fluorescence emissions at 620 nm and 665 nm after excitation at 350 nm was measured in a TR-FRET reader, e.g. a Pherastar (BMG Labtechnologies, Offenburg, Germany) or a Viewlux (Perkin-Elmer). The ratio of the emissions at 665 nm and at […] was taken as the measure for the amount of phosphorylated substrate. The data were normalised (enzyme reaction without inhibitor=0% inhibition, all other assay components but no enzyme=100% inhibition).

CDK9/CycT1 = molecular target: T2, CDK9/CycT1 (Homo sapiens, UniProt P50750); experiment: CDK9/CycT1 high ATP kinase assay (TR-FRET, 2 mM ATP); type: biochemical; settings: 2 mM ATP (high ATP); median; read-out: CDK9/CyclinT1, 2 mM ATP (high ATP), IC50 (median)
T2 construct: Recombinant full-length His-tagged human CDK9 and CycT1; purchased Life Technologies PV4131; host or cells: insect cells
Procedure: CDK9/CycT1-inhibitory activity of compounds of the present invention at a high ATP concentration after preincubation of enzyme and test compounds was quantified employing the CDK9/CycT1 TR-FRET assay as described in the following paragraphs.
Recombinant full-length His-tagged human CDK9 and CycT1, expressed in insect cells and purified by Ni-NTA affinity chromatography, were purchased from Life Technologies (Cat. No PV4131). As substrate for the kinase reaction biotinylated peptide biotin-Ttds-[…] (C-terminus in amide form) was used which can be purchased e.g. form the company JERINI peptide technologies (Berlin, Germany).
For the assay 50 nanoL of a 100 fold concentrated solution of the test compound in DMSO was pipetted into either a black low volume 384 well microtiter plate or a black 1536 well microtiter plate (both Greiner Bio-One, Frickenhausen, Germany), 2 microL of a solution of CDK9/CycT1 in aqueous assay buffer [50 millimol/L Tris/HCl pH 8.0, 10 millimol/L MgCl2, 1.0 millimol/L dithiothreitol, 0.1 millimol/L sodium ortho-vanadate, 0.01% (v/v) Nonidet-P40 (Sigma)] were added and the mixture was incubated for 15 min at 22° C. to allow pre-binding of the test compounds to the enzyme before the start of the kinase reaction. […] The concentration of CDK9/CycT1 was adjusted depending of the activity of the enzyme lot and was chosen appropriate to have the assay in the linear range, typical concentrations were in the range of 0.5 microg/ml.
as §1, with “substrate.” for “substrate. The data were normalised (enzyme reaction without inhibitor=0% inhibition, all other assay components but no enzyme=100% inhibition).”

T2 sequence (P50750 whole entry): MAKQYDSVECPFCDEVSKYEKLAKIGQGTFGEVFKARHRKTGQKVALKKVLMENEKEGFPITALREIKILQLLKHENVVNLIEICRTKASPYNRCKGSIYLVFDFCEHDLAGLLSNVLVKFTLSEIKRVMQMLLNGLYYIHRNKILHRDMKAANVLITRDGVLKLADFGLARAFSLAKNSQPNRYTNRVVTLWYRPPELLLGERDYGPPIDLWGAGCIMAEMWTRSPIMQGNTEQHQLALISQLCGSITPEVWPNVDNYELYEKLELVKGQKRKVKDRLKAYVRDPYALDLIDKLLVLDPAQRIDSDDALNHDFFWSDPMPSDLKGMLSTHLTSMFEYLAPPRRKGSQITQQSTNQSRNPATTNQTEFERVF
T2 sequence (O60563 whole entry partner): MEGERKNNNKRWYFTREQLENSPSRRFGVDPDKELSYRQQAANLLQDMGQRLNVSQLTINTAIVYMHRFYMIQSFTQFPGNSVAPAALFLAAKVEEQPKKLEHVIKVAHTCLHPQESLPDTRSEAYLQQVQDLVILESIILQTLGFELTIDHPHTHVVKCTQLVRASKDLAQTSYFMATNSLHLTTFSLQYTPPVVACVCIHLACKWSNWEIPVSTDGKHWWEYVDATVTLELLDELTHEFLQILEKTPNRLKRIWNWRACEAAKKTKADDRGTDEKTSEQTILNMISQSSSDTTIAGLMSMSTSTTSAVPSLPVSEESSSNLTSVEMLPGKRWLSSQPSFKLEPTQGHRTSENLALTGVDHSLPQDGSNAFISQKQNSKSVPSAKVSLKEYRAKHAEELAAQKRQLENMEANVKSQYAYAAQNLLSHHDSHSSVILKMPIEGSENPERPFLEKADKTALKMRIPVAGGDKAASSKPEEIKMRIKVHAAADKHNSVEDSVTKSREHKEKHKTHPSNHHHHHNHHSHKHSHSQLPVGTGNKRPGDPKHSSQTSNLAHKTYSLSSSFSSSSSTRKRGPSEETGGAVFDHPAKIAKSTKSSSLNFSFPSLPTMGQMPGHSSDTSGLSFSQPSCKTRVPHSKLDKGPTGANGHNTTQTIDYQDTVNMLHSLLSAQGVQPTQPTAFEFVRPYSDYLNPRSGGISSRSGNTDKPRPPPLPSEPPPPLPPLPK

Compound	IC50 (CDK2/CycE)	IC50 (CDK9/CycT1)
CC(=O)NCCCc1cccc2[nH]c(CNc3nc(N4CCOCC4)nc4c(Br)cnn34)nc12.O=CO [Example 115, formic acid-N-{3-[2-({[8-bromo-2-(morpholin-4-yl)pyrazolo[1,5-a][1,3,5]triazin-4-yl]amino}methyl)-1H-benzimidazol-4-yl]propyl}acetamide (1/1)]	10.7 µM	> 20 µM
C[C@@H]1CCCCN1c1nc(NCc2nc3ccccc3[nH]2)n2ncc(Br)c2n1 [Example 140, N-[(1H-benzimidazol-2-yl)methyl]-8-bromo-2-[(2R)-2-methylpiperidin-1-yl]pyrazolo[1,5-a][1,3,5]triazin-4-amine]	1.25 µM	> 20 µM
Brc1cnn2c(NCc3nc4ccccc4[nH]3)nc(N3CCC3)nc12 [Example 143, 2-(azetidin-1-yl)-N-[(1H-benzimidazol-2-yl)methyl]-8-bromopyrazolo[1,5-a][1,3,5]triazin-4-amine]	17.8 µM	> 20 µM
NCCCc1cccc2[nH]c(CNc3nc(N4CCOCC4)nc4c(Br)cnn34)nc12.O=CO [Example 114, formic acid-N-{[4-(3-aminopropyl)-1H-benzimidazol-2-yl]methyl}-8-bromo-2-(morpholin-4-yl)pyrazolo[1,5-a][1,3,5]triazin-4-amine (1/1)]	5.44 µM	> 20 µM
CN1CCN(c2nc(NCc3nc4ccccc4[nH]3)n3ncc(Br)c3n2)C(CO)C1 (stereo not drawn) [Example 155, [1-[4-(1H-benzimidazol-2-ylmethylamino)-8-bromo-pyrazolo[1,5-a][1,3,5]triazin-2-yl]-4-methyl-piperazin-2-yl]methanol]	9.28 µM	> 20 µM
CN1CCN(c2nc(NCc3nc4ccccc4[nH]3)n3ncc(Br)c3n2)CC1=O [Example 131, 4-(4-{[(1H-benzimidazol-2-yl)methyl]amino}-8-bromopyrazolo[1,5-a][1,3,5]triazin-2-yl)-1-methylpiperazin-2-one]	> 20 µM	> 20 µM
Brc1cnn2c(NCc3nc4ccccc4[nH]3)nc(N3CCN(C4CC4)CC3)nc12 [Example 138, N-[(1H-benzimidazol-2-yl)methyl]-8-bromo-2-(4-cyclopropylpiperazin-1-yl)pyrazolo[1,5-a][1,3,5]triazin-4-amine]	> 20 µM	> 20 µM
CC1CN(C)CCN1c1nc(NCc2nc3ccccc3[nH]2)n2ncc(Br)c2n1 (stereo not drawn) [Example 156, N-(1H-benzimidazol-2-ylmethyl)-8-bromo-2-(2,4-dimethylpiperazin-1-yl)pyrazolo[1,5-a][1,3,5]triazin-4-amine]	3.48 µM	> 20 µM
FC(F)(F)CN1CCN(c2nc(NCc3nc4ccccc4[nH]3)n3ncc(Br)c3n2)CC1 [Example 139, N-[(1H-benzimidazol-2-yl)methyl]-8-bromo-2-[4-(2,2,2-trifluoroethyl)piperazin-1-yl]pyrazolo[1,5-a][1,3,5]triazin-4-amine]	14.7 µM	> 20 µM
